Patent US20230233569A1 (Revolution Medicines, Inc., priority 2020, published 2023)
“And” between values parts separate entries of the source, which are not always exact repeats. Equal entries are not always repeated. Where two headings read alike, the source gives them in different places.

Tests used:
NRAS G12C = NRAS G12C (Homo sapiens, UniProt P01111+P62937, G12C); assay: Disruption of BRAF RBD interaction with Ras (FRET / MOA assay, with Cyclophilin A); type: biochemical
KRAS G13C = KRAS G13C (Homo sapiens, UniProt P01116+P62937, G13C); assay: as above; type: biochemical
Chain of KRAS G13C (P01116 1-169 isoform P01116-2 G13C): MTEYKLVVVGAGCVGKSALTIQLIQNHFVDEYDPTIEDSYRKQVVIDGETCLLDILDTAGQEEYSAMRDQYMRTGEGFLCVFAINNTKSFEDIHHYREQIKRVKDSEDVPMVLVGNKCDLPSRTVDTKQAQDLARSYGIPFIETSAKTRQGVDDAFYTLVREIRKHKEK
Chain of KRAS G13C (P62937 whole entry): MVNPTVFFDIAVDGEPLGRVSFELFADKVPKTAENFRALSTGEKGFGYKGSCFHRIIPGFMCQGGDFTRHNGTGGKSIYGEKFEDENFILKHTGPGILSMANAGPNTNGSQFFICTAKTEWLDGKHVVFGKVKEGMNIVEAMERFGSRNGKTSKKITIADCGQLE
Outline: (§1)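 Cyclophilin A-dependent ternary complex assay. K-Ras loaded with nucleotide; BRAF RBD as effector. Cpd top 30 μM final, 3 h at 25 °C. Readout: TR-FRET ratio, IC50.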

KRAS G12C = KRAS G12C (Homo sapiens, UniProt P01116+P62937, G12C); assay: as above; type: biochemical
Chain of KRAS G12C (P01116 1-169 isoform P01116-2 G12C): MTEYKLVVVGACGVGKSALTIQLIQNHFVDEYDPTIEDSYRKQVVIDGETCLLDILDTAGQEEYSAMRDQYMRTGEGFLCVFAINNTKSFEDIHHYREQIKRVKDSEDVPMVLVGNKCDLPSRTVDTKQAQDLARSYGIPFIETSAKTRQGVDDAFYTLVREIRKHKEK
Chain of KRAS G12C (P62937 whole entry): as the sequence (P62937 whole entry) above
Outline: as §1

KRAS G12V = KRAS G12V (Homo sapiens, UniProt P01116+P62937, G12V); assay: as above; type: biochemical
Chain of KRAS G12V (P01116 1-169 isoform P01116-2 G12V limits assumed): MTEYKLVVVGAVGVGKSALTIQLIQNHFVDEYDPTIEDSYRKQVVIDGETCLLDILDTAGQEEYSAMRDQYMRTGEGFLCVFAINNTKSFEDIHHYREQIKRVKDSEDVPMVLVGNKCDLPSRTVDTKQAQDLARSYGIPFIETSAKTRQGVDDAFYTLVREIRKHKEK
Chain of KRAS G12V (P62937 whole entry): as the sequence (P62937 whole entry) above
Outline: as §1

KRAS G12S = KRAS G12S (Homo sapiens, UniProt P01116+P62937, G12S); assay: as above; type: biochemical
Chain of KRAS G12S (P01116 1-169 isoform P01116-2 G12S limits assumed): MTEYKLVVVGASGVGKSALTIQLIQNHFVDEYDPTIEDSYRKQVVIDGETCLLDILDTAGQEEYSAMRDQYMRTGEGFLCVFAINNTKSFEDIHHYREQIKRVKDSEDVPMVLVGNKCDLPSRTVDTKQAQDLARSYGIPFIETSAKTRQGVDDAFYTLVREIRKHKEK
Chain of KRAS G12S (P62937 whole entry): as the sequence (P62937 whole entry) above
Outline: as §1

KRAS G13D = KRAS G13D (Homo sapiens, UniProt P01116+P62937, G13D); assay: as above; type: biochemical
Chain of KRAS G13D (P01116 1-169 isoform P01116-2 G13D limits assumed): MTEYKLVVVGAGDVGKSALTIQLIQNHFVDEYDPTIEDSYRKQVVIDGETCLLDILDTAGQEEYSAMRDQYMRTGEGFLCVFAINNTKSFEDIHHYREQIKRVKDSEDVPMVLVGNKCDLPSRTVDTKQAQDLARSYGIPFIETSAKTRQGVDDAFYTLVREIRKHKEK
Chain of KRAS G13D (P62937 whole entry): as the sequence (P62937 whole entry) above
Outline: as §1

KRAS G12D = KRAS G12D (Homo sapiens, UniProt P01116+P62937, G12D); assay: as above; type: biochemical
Chain of KRAS G12D (P01116 1-169 isoform P01116-2 G12D limits assumed): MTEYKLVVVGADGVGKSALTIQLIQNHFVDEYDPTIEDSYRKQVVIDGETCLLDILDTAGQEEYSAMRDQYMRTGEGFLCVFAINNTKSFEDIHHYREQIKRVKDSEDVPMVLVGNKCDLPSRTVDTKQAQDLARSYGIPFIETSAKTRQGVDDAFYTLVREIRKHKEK
Chain of KRAS G12D (P62937 whole entry): as the sequence (P62937 whole entry) above
Outline: as §1

KRAS WT = KRAS WT (Homo sapiens, UniProt P01116+P62937); assay: as above; type: biochemical
Chain of KRAS WT (P01116 1-169 isoform P01116-2 limits assumed): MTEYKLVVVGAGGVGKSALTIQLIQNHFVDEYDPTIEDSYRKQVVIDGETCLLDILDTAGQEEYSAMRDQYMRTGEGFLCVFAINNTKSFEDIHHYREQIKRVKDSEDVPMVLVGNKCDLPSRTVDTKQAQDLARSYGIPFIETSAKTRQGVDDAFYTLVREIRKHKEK
Chain of KRAS WT (P62937 whole entry): as the sequence (P62937 whole entry) above
Outline: as §1

Capan-1 (K-Ras G12V) = assay: CellTiter-Glo cell viability assay, 5-day treatment; type: cell-based; conditions: Homo sapiens, CAPAN-1, 120 h, 5-day treatment; read-out: Capan-1 Cell Viability assay data (K-Ras G12V, IC50)
Outline: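 Five-day compound treatment of plated cells; luminescent read after ~30 min at RT. Percent-of-DMSO data fit to a four-parameter logistic model.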

[1] = NRAS G12C, read-out: NRAS G12C FRET data IC50
[2] = read-out: KRAS G13C FRET data, IC50
[3] = read-out: KRAS G12C FRET data, IC50
[4] = KRAS G12V, read-out: KRAS G12V FRET data IC50
[5] = read-out: KRAS G12S FRET data, IC50
[6] = KRAS G13D, read-out: KRAS G13D FRET data IC50
[7] = read-out: KRAS G12D FRET data, IC50
[8] = KRAS WT, read-out: KRAS WT FRET data IC50
[9] = NRAS G12C FRET data IC50, NRAS G12C
[10] = KRAS G12V FRET data IC50, KRAS G12V
[11] = KRAS G13D FRET data IC50, KRAS G13D
[12] = KRAS WT FRET data IC50, KRAS WT

Chain of NRAS G12C (P01111 whole entry G12C): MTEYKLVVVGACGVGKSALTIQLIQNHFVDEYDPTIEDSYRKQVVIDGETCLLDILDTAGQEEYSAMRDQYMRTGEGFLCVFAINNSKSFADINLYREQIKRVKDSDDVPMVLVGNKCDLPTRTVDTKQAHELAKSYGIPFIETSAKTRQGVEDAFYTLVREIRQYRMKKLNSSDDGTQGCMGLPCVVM
Chain of NRAS G12C (P62937 whole entry): as the sequence (P62937 whole entry) above

Compound	IC50 (NRAS G12C; [1])	IC50 (KRAS G13C; [2])	IC50 (KRAS G12C; [3])	IC50 (KRAS G12V; [4])	IC50 (KRAS G12S; [5])	IC50 (KRAS G13D; [6])	IC50 (KRAS G12D; [7])	IC50 (KRAS WT; [8])	IC50 (Capan-1 (K-Ras G12V))	IC50 (NRAS G12C; [9])	IC50 (KRAS G13C; KRAS G13C FRET data, IC50)	IC50 (KRAS G12C; KRAS G12C FRET data, IC50)	IC50 (KRAS G12V; [10])	IC50 (KRAS G12S; KRAS G12S FRET data, IC50)	IC50 (KRAS G13D; [11])	IC50 (KRAS G12D; KRAS G12D FRET data, IC50)	IC50 (KRAS WT; [12])
CCn1c(-c2cccnc2[C@@H]2CCCO2)c2c3cc(ccc31)-c1csc(n1)C[C@H](NC(=O)[C@H](C(C)C)N(C)C(=O)N1CC(N(C)C)C1)C(=O)N1CCC[C@H](N1)C(=O)OCC(C)(C)C2 (atropisomer, axis not shown) [Example A327]	> 10 µM	> 10 µM	> 10 µM	> 10 µM	> 10 µM	> 10 µM	> 10 µM	> 10 µM	1 to 10 µM	–	–	–	–	–	–	–	–
CCn1c(-c2cccnc2[C@H](C)OC)c2c3cc(ccc31)-c1cc(O)cc(c1)C[C@H](NC(=O)[C@@H](NC(C)=O)C(C)(C)OC)C(=O)N1CCC[C@H](N1)C(=O)OCC(C)(C)C2 (racemic) [Example A172]	> 10 µM	1 to 10 µM	> 10 µM	> 10 µM	> 10 µM	> 10 µM	> 10 µM	> 10 µM	> 10 µM	–	–	–	–	–	–	–	–
CCn1c(-c2cccnc2[C@H](C)OC)c2c3cc(ccc31)-c1cc(O)cc(c1)C[C@H](NS(=O)(=O)CC1OCCC13CNC3)C(=O)N1CCC[C@H](N1)C(=O)OCC(C)(C)C2 (mixture of isomers) [Example A187]	> 10 µM	> 10 µM	> 10 µM	> 10 µM	> 10 µM	> 10 µM	> 10 µM	> 10 µM	> 10 µM	–	–	–	–	–	–	–	–
CCn1c(-c2cccnc2[C@H](C)OC)c2c3cc(ccc31)-c1cc(O)cc(c1)C[C@H](NS(=O)(=O)CCN(C)C)C(=O)N1CCC[C@H](N1)C(=O)OCC(C)(C)C2 (racemic) [Example A190]	> 10 µM	> 10 µM	> 10 µM	> 10 µM	> 10 µM	> 10 µM	> 10 µM	> 10 µM	> 10 µM	–	–	–	–	–	–	–	–
CCn1c(-c2cccnc2[C@H](C)OC)c2c3cc(ccc31)-c1cc(O)cc(c1)C[C@H](NS(=O)(=O)c1cnc[nH]1)C(=O)N1CCC[C@H](N1)C(=O)OCC(C)(C)C2 (racemic) [Example A192]	> 10 µM	> 10 µM	> 10 µM	> 10 µM	> 10 µM	> 10 µM	> 10 µM	> 10 µM	> 10 µM	–	–	–	–	–	–	–	–
CCn1c(-c2cccnc2[C@H](C)OC)c2c3cc(ccc31)-c1cc(O)cc(c1)C[C@H](NC(=O)[C@H](C(C)C)N(C)C(=O)[C@H]1CCNC1)C(=O)N1CCC[C@H](N1)C(=O)OCC(C)(C)C2 [Example A4]	–	–	–	–	–	–	–	–	> 10 µM	1 to 10 µM and 0.01 to 0.1 µM	0.1 to 1 µM and 0.01 to 0.1 µM	0.1 to 1 µM and 0.01 to 0.1 µM	0.1 to 1 µM and > 10 µM	1 to 10 µM and 0.01 to 0.1 µM	0.1 to 1 µM and 0.01 to 0.1 µM	1 to 10 µM and 0.01 to 0.1 µM	1 to 10 µM and 0.01 to 0.1 µM
CCn1c(-c2cnccc2COC)c2c3cc(ccc31)-c1cc(O)cc(c1)C[C@H](NC(=O)[C@H]([C@@H](C)OC)N(C)C(C)=O)C(=O)N1CCC[C@H](N1)C(=O)OCC(C)(C)C2 [Example A76]	0.1 to 1 µM	0.1 to 1 µM	0.1 to 1 µM	0.1 to 1 µM	0.1 to 1 µM	0.1 to 1 µM	1 to 10 µM	0.1 to 1 µM	1 to 10 µM	–	–	–	–	–	–	–	–
CCn1c(-c2cnccc2COC)c2c3cc(ccc31)-c1cc(O)cc(c1)C[C@H](NC(=O)[C@H](C(C)C)N(C)C(=O)[C@@H]1CN(C(C)=O)C[C@@H]1C(F)(F)F)C(=O)N1CCC[C@H](N1)C(=O)OCC(C)(C)C2 [Example A80]	0.1 to 1 µM	0.1 to 1 µM	0.1 to 1 µM	1 to 10 µM	0.1 to 1 µM	0.1 to 1 µM	0.1 to 1 µM	0.1 to 1 µM	1 to 10 µM	–	–	–	–	–	–	–	–
CCn1c(-c2cnccc2COC)c2c3cc(ccc31)-c1cc(O)cc(c1)C[C@H](NC(=O)[C@H](C(C)C)N(C)C(=O)[C@H](C)O)C(=O)N1CCC[C@H](N1)C(=O)OCC(C)(C)C2 [Example A93]	–	–	–	–	–	–	–	–	1 to 10 µM	0.1 to 1 µM	0.1 to 1 µM	0.1 to 1 µM	0.1 to 1 µM	0.1 to 1 µM	0.1 to 1 µM	1 to 10 µM	0.1 to 1 µM
CCn1c(-c2cccnc2[C@H](C)OC)c2c3cc(ccc31)-c1cccc(c1)C[C@H](NC(=O)[C@H](C(C)C)N(C)C(=O)[C@H]1CCN(C(=O)CN(C)C)C1)C(=O)N1CCC[C@H](N1)C(=O)OCC(C)(C)C2 [Example A96]	0.1 to 1 µM	0.1 to 1 µM	0.1 to 1 µM	1 to 10 µM	1 to 10 µM	1 to 10 µM	1 to 10 µM	1 to 10 µM	1 to 10 µM	–	–	–	–	–	–	–	–
CCn1c(-c2cccnc2[C@H](C)OC)c2c3cc(ccc31)-c1cccc(c1)C[C@H](NC(=O)[C@H](C(C)C)N(C)C(=O)[C@H]1CCN(C(=O)CNC)C1)C(=O)N1CCC[C@H](N1)C(=O)OCC(C)(C)C2 [Example A98]	–	–	–	–	–	–	–	–	> 10 µM	0.1 to 1 µM	0.1 to 1 µM	0.1 to 1 µM	1 to 10 µM	1 to 10 µM	1 to 10 µM	1 to 10 µM	1 to 10 µM
CCn1c(-c2cccnc2[C@H](C)OC)c2c3cc(ccc31)-c1cccc(c1)C[C@H](NC(=O)[C@H](C(C)C)N(C)C(=O)[C@H]1CCN(C(=O)CN)C1)C(=O)N1CCC[C@H](N1)C(=O)OCC(C)(C)C2 [Example A105]	1 to 10 µM	0.1 to 1 µM	0.1 to 1 µM	1 to 10 µM	1 to 10 µM	1 to 10 µM	1 to 10 µM	1 to 10 µM	> 10 µM	–	–	–	–	–	–	–	–
CCn1c(-c2cccnc2[C@H](C)OC)c2c3cc(ccc31)-c1csc(n1)C[C@H](NC(=O)[C@H](C(C)C)N(C)C(=O)[C@H]1CCN(C(=O)CN)C1)C(=O)N1CCC[C@H](N1)C(=O)OCC(C)(C)C2 [Example A106]	0.1 to 1 µM	0.1 to 1 µM	0.1 to 1 µM	1 to 10 µM	1 to 10 µM	1 to 10 µM	0.1 to 1 µM	0.1 to 1 µM	1 to 10 µM	–	–	–	–	–	–	–	–
CCn1c(-c2cccnc2[C@H](C)OC)c2c3cc(ccc31)-c1csc(n1)C[C@H](NC(=O)[C@H](C(C)C)N1CCC3(CN(C)C3)C1=O)C(=O)N1CCC[C@H](N1)C(=O)OCC(C)(C)C2 [Example A222]	> 10 µM	–	–	> 10 µM	–	–	–	–	> 10 µM	–	–	–	–	–	–	–	–
